Data from PMC7611940, “A Conformation Selective Mode of Inhibiting SRC Improves Drug Efficacy and Tolerability” (Cancer Research, 2021).

Target: SRC (Homo sapiens, UniProt P12931)
Test: inhibition of SRC autophosphorylation (pY419) in cells, Western blot
Format: cell-based

SRC, sequence (P12931 2-536): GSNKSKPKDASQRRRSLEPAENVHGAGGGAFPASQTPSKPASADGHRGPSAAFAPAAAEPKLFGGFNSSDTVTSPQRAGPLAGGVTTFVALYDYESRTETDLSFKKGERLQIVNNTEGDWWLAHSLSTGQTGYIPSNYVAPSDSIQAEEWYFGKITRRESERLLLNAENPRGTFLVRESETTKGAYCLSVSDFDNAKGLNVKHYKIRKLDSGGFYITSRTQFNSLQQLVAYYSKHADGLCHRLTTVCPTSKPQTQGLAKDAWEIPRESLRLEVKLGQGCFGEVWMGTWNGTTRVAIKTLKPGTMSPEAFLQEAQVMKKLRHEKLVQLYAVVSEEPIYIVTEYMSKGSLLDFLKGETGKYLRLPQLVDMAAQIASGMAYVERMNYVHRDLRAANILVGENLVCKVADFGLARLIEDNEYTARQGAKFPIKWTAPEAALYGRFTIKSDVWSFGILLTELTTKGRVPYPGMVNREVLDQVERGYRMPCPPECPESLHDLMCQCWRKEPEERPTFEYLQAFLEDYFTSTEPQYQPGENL

COc1cc(Nc2c(C#N)cnc3cc(OCCCN4CCN(C)CC4)c(OC)cc23)c(Cl)cc1Cl [bosutinib]
inhibition of SRC autophosphorylation (pY419) in cells, Western blot: Bosutinib and saracatinib displayed weaker inhibition of SRC autophosphorylation in all the cell lines tested
